Source: patent EP1167342A1, “Novel substituted nitrocatechols, their use in the treatment of some central and peripheral nervous system disorders and pharmaceutical compositions containing them” (Portela & Ca., S.A., priority 2000, dated 2002)

Key:
COMT = target: T1, COMT (Homo sapiens, UniProt P21964); assay: COMT activity in intact SK-N-SH cells (methylation of adrenaline to metanephrine, HPLC with electrochemical detection); type: cell-based; details: concentration of test compound 100 nM, means ±SEM of n=4-8
T1 construct: COMT activity was evaluated in cell monolayers by the ability to methylate adrenaline; host or cells: SK-N-SH
T1 sequence (P21964 1-271): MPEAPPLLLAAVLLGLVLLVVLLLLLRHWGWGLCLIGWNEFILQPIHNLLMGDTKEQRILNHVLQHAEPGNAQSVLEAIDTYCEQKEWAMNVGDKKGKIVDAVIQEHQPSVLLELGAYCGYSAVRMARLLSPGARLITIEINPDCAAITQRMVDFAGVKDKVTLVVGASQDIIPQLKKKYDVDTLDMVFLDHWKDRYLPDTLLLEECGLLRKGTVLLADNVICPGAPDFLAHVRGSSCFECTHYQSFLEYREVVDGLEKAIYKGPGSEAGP

Brain COMT = assay: Ex vivo COMT activity in mouse brain homogenates after administration of test compound by gastric tube; design: species or system NMRI mice; details: for Brain COMT (% of control) 1h / Brain COMT (% of control) 6h: homogenates of mice brain, dose not given, means±S.E.M. of 4-8 experiments; for Brain COMT (% of control) 1h: 1 h after administration by gastric tube; for Brain COMT (% of control) 6h: 6 h after administration by gastric tube; for activity in the brain: conclusion, statement in words
Liver COMT = assay: Ex vivo COMT activity in mouse liver homogenates after administration of test compound by gastric tube; design: species or system NMRI mice; details: for Liver COMT (% of control) 1h / Liver COMT (% of control) 6h: homogenates of mice liver, dose not given, means±S.E.M. of 4-8 experiments; for Liver COMT (% of control) 1h: 1 h after administration by gastric tube; for Liver COMT (% of control) 6h: 6 h after administration by gastric tube; for potency upon liver COMT compared with brain COMT: mice, after oral administration, statement in words

Compound	COMT activity (% of control) (COMT)	Brain COMT (% of control) 1h (Brain COMT)	Brain COMT (% of control) 6h (Brain COMT)	Liver COMT (% of control) 1h (Liver COMT)	Liver COMT (% of control) 6h (Liver COMT)	activity in the brain (Brain COMT)	potency upon liver COMT compared with brain COMT (Liver COMT)
CC1CCCCN1CC(=O)c1cc(O)c(O)c([N+](=O)[O-])c1.Cl (stereo not drawn) [Compound 6, 1-(3,4-Dihydroxy-5-nitro-phenyl)-2-(2-methyl-piperidin-1-yl)-ethanone hydrochloride]	12.2±1.7 % of control	37.0±3.3 % of control	66.0±2.6 % of control	57.6±5.8 % of control	99.9±10.3 % of control	–	–
CCN(CC)C(C)C(=O)c1cc(O)c(O)c([N+](=O)[O-])c1.Cl (stereo not drawn) [Compound 7, 2-Diethylamino-1-(3,4-dihydroxy-5-nitro-phenyl)-propan-1-one hydrochloride]	9.0±0.2 % of control	74.0±12.0 % of control	126.0±8.0 % of control	38.4±2.8 % of control	57.1±4.9 % of control	–	–
O=C(COc1ccccc1)c1cc(O)c(O)c([N+](=O)[O-])c1 [Compound 8, 1-(3,4-Dihydroxy-5-nitro-phenyl)-2-phenoxy-ethanone]	8.6±0.1 % of control	61.0±4.0 % of control	104.4±6.2 % of control	22.0±3.7 % of control	49.6±9.4 % of control	–	–
COc1ccc(OCC(=O)c2cc(O)c(O)c([N+](=O)[O-])c2)cc1 [Compound 9, 1-(3,4-Dihydroxy-5-nitro-phenyl)-2-(4-methoxy-phenoxy)-ethanone]	12.8±0.4 % of control	59.0±6.0 % of control	93.0±9.0 % of control	29.0±1.0 % of control	35.0±6.0 % of control	–	–
O=C(COc1ccc2ccccc2c1)c1cc(O)c(O)c([N+](=O)[O-])c1 [Compound 10, 1-(3,4-Dihydroxy-5-nitro-phenyl)-2-(naphthalen-2-yloxy)-ethanone]	2.0±0.1 % of control	83.0±5.0 % of control	119.0±13.0 % of control	17.3±2.7 % of control	38.7±4.7 % of control	limited activity in the brain	much more potent upon liver COMT than brain COMT
CC1CN(CC(=O)c2cc(O)c(O)c([N+](=O)[O-])c2)CC(C)O1.Cl (stereo not drawn) [Compound 11, 1-(3,4-Dihydroxy-5-nitro-phenyl)-2-(2,6-dimethyl-morpholin-4-yl)-ethanone hydrochloride]	14.8±1.3 % of control	80.0±5.0 % of control	103.0±7.0 % of control	38.0±5.0 % of control	73.0±10.0 % of control	–	–
CC1CC(C)CN(CC(=O)c2cc(O)c(O)c([N+](=O)[O-])c2)C1.Cl (stereo not drawn) [Compound 12, 1-(3,4-Dihydroxy-5-nitro-phenyl)-2-(3,5-dimethyl-piperidin-1-yl)-ethanone hydrochloride]	15.4±1.8 % of control	32.0±2.0 % of control	84.0±6.0 % of control	33.0±2.0 % of control	52.0±13.0 % of control	–	–
Cl.Cl.O=C(CN1CCN(c2cccc(C(F)(F)F)c2)CC1)c1cc(O)c(O)c([N+](=O)[O-])c1 [Compound 13, 1-(3,4-Dihydroxy-5-nitro-phenyl)-2-[4-(3-trifluoromethyl-phenyl)-piperazin-1-yl]-ethanone dihydrochloride]	7.7±0.6 % of control	76.0±9.0 % of control	100.0±10.0 % of control	49.7±3.2 % of control	46.7±2.9 % of control	–	–
Cl.Cl.Cl.O=C(CN1CCN(c2ccccn2)CC1)c1cc(O)c(O)c([N+](=O)[O-])c1 [Compound 14, 1-(3,4-Dihydroxy-5-nitro-phenyl)-2-(4-pyridin-2-yl-piperazin-1-yl)-ethanone trihydrochloride]	8.5±0.3 % of control	95.4±11.4 % of control	121.2±11.8 % of control	33.6±5.6 % of control	50.3±5.6 % of control	–	–
Cl.N#CC1(c2ccccc2)CCN(CCC(=O)c2cc(O)c(O)c([N+](=O)[O-])c2)CC1 [Compound 15, 1-[3-(3,4-Dihydroxy-5-nitro-phenyl)-3-oxo-propyl]-4-phenyl-piperidine-4-carbonitrile hydrochloride]	2.9±0.3 % of control	93.0±9.0 % of control	122.0±9.0 % of control	51.7±5.9 % of control	37.9±8.4 % of control	–	–
Cl.O=C(CCN1CCCCCCC1)c1cc(O)c(O)c([N+](=O)[O-])c1 [Compound 16, 3-Azocan-1-yl-1-(3,4-dihydroxy-5-nitro-phenyl)-propan-1-one hydrochloride]	3.2±0.2 % of control	25.0±13.0 % of control	95.0±12.0 % of control	22.1±3.4 % of control	71.7±21.6 % of control	–	equally potent in inhibiting liver and brain COMT activity
CCOC(=O)C1CCN(CCC(=O)c2cc(O)c(O)c([N+](=O)[O-])c2)CC1.Cl [Compound 17, 1-[3-(3,4-Dihydroxy-5-nitro-phenyl)-3-oxo-propyl]-piperidine-4-carboxylic acid ethyl ester hydrochloride]	7.7±0.5 % of control	96.0±5.0 % of control	109.0±14.0 % of control	36.8±2.3 % of control	69.6±8.9 % of control	–	–
Cl.Cl.O=C(CCN1CCN(c2cccc(C(F)(F)F)c2)CC1)c1cc(O)c(O)c([N+](=O)[O-])c1 [Compound 18, 1-(3,4-Dihydroxy-5-nitro-phenyl)-3-[4-(3-trifluoromethyl-phenyl)-piperazin-1-yl]-propan-1-one dihydrochloride]	4.2±0.2 % of control	86.0±14.0 % of control	86.0±11.0 % of control	18.5±6.8 % of control	26.3±3.9 % of control	limited activity in the brain	much more potent upon liver COMT than brain COMT
Cl.O=C(CCN1CCSCC1)c1cc(O)c(O)c([N+](=O)[O-])c1 [Compound 19, 1-(3,4-Dihydroxy-5-nitro-phenyl)-3-thiomorpholin-4-yl-propan-1-one hydrochloride]	6.8±2.3 % of control	93.0±19.0 % of control	107.0±3.0 % of control	30.3±4.0 % of control	57.9±8.6 % of control	–	–
